# Measured values as given in patent publication US20090029366A1 (priority 2007, published 2009).
# Like-named read-outs stand apart in the source and are kept apart here.
# Legend:
# Assay type in all cases: cell-based
# [1] = target: T1, human HCN1 (Homo sapiens, UniProt O60741)
# T1 construct: expressed in transfected cells; host or cells: HEK-293H
# T1 sequence (O60741 1-890): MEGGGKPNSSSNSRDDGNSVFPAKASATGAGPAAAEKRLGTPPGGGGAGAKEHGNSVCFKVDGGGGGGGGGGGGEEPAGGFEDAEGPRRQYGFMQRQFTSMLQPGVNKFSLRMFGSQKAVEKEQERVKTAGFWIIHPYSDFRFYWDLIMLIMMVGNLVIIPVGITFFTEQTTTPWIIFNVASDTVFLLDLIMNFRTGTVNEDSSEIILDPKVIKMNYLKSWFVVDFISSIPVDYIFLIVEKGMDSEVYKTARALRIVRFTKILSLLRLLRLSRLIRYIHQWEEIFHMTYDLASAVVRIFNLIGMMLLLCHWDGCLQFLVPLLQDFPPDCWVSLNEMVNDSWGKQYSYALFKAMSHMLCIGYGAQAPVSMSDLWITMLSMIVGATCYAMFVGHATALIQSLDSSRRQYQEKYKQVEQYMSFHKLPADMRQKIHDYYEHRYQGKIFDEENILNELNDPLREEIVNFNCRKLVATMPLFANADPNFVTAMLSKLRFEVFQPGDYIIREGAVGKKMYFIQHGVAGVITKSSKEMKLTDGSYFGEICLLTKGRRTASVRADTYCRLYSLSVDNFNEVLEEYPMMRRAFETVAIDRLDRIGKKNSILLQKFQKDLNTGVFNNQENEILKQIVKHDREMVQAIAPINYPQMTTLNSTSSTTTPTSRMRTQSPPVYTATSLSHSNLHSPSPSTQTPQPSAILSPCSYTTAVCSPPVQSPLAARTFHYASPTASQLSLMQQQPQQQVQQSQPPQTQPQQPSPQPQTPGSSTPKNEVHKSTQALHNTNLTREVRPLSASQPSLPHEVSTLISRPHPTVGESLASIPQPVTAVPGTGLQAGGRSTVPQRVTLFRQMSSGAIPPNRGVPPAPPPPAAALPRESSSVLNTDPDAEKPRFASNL
# [2] = target: T2, human HCN4 channel (Homo sapiens, UniProt Q9Y3Q4); assay: Dose response of blockade of hyperpolarization (MPSD FLIPR), HCN4
# T2 construct: expressed in transfected cells; host or cells: CHO-K1
# T2 sequence (Q9Y3Q4 1-1203): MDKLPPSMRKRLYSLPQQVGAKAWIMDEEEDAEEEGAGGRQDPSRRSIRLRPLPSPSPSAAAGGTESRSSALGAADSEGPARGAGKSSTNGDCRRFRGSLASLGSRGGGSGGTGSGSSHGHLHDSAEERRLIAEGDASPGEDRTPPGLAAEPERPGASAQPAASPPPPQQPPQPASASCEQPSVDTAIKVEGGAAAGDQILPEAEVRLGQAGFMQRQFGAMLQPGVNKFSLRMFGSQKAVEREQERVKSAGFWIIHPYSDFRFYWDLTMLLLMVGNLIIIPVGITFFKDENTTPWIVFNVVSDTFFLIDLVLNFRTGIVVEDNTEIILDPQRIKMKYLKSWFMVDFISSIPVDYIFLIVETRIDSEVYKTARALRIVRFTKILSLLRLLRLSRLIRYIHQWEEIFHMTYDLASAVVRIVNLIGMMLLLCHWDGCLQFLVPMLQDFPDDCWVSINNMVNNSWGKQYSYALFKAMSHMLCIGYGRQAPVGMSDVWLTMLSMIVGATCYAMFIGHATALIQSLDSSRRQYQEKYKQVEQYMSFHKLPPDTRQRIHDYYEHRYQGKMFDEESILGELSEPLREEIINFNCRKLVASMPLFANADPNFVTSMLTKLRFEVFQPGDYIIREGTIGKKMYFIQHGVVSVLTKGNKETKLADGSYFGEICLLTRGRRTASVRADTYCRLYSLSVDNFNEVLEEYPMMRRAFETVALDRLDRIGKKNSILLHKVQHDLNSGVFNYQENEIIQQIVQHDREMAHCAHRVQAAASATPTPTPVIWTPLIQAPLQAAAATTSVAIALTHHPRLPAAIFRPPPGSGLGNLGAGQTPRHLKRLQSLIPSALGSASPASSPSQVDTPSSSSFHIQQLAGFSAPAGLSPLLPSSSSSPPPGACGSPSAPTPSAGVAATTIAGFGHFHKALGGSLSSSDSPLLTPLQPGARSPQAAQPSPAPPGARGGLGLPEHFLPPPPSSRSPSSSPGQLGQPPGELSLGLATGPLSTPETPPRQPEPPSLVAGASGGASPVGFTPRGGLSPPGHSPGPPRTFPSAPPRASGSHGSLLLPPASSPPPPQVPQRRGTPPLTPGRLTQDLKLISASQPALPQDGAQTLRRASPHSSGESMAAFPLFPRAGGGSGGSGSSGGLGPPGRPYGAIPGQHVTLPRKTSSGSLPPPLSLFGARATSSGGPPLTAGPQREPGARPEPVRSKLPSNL
# Experimental: (§1) HEK-293H cells stably expressing a human HCN1 channel were plated and incubated in HBSS essentially as described in Examples 3 and 5. CHO-K1 cells stably expressing a human HCN4 channel were plated and incubated in HBSS essentially as described in Example 6. Varying concentrations of ZD7288 were added to HBSS for each of the test wells to determine the dose response of cells expressing HCN1 or HCN4 channels. The percent inhibition of hyperpolarization was calculated for a single dose using the following equation:
# (§2) The data were fit with a Hill equation as described by the ratio 1/(1+([test agent]/IC50)^k, where IC50 is the concentration of a test agent required to inhibit one-half of the maximum current and k is the Hill coefficient.
# Similarly, ZD7288 IC50 values on HCN4 channel were determined in a set of two experiments. […] No statistical difference was found between the two experiments.
# [3] = target: T1, human HCN1; assay: Dose response of blockade of hyperpolarization (MPSD FLIPR), HCN1; conditions: HEK-293 clone
# Experimental: as §1, §2
# FIG. 10A depicts a typical dose response curve for a single HEK-293H HCN1 channel expressing clone in the presence of ZD7288. […] No statistical difference was found between the two means.
compound,measurement,setting,value
CCN(c1ccccc1)c1cc(=NC)n(C)c(C)n1.Cl [ZD7288],reversal of hyperpolarization induced by low sodium/potassium diluent,[1],reversed
same,IC50,"[2]; CHO-K1, group 1, n=8, mean ± 2.31 μM, read-out: IC50 mean, group 1",9.07 µM
same,IC50,"[2]; CHO-K1, group 2, n=8, mean ± 2.61 μM, read-out: IC50 mean, group 2",9.06 µM
same,IC50,"[3]; group 1, n=8, mean ± 0.2 μM, read-out: IC50 mean, group 1",2.1 µM
same,IC50,"[3]; group 2, n=12, mean ± 0.8 μM, read-out: IC50 mean, group 2",2.9 µM
